Assay results: patent US10626144B2, “Peptide derivatives and uses thereof” (Nosopharm, priority 2014, dated 2020)
Square brackets hold non-standard residues; d marks the D form. Peptide text beside a SMILES is read from it. Phe(3-CF3) = N[C@@H](Cc1cccc(C(F)(F)F)c1)C(=O)O; Phe(4-CF3) = N[C@@H](Cc1ccc(C(F)(F)F)cc1)C(=O)O; Phe(4-CONH2) = NC(=O)c1ccc(C[C@H](N)C(=O)O)cc1; Phe(3,4-F2) = N[C@@H](Cc1ccc(F)c(F)c1)C(=O)O; Phe(3,5-F2) = N[C@@H](Cc1cc(F)cc(F)c1)C(=O)O; Phe(3-CN) = N#Cc1cccc(C[C@H](N)C(=O)O)c1; Phe(3-OMe) = COc1cccc(C[C@H](N)C(=O)O)c1; Phe(4-Cl) = N[C@@H](Cc1ccc(Cl)cc1)C(=O)O; Phe(4-NH2) = Nc1ccc(C[C@H](N)C(=O)O)cc1; Phe(4-F) = N[C@@H](Cc1ccc(F)cc1)C(=O)O; Phe(4-Me) = Cc1ccc(C[C@H](N)C(=O)O)cc1; Dab(3S-OH) = NC[C@H](O)[C@H](N)C(=O)O; His(π-Me) = Cn1cncc1C[C@H](N)C(=O)O; 2Pal = N[C@@H](Cc1ccccn1)C(=O)O; 3Pal = N[C@@H](Cc1cccnc1)C(=O)O; 4Pal = N[C@@H](Cc1ccncc1)C(=O)O; ΔZArg = N=C(N)NCC/C=C(\N)C(=O)O; Cit = NC(=O)NCCC[C@H](N)C(=O)O; aThr = C[C@H](O)[C@H](N)C(=O)O; AllylGly = C=CC[C@H](N)C(=O)O; NMeK = CN[C@@H](CCCCN)C(=O)O; dOrn = NCCC[C@@H](N)C(=O)O

Experiments:
Assay in all cases: MIC, broth microdilution (CLSI), reference strain
Conditions in all cases: CAMHB
[1] = test system: Staphylococcus aureus ATCC 13709
[2] = test system: Pseudomonas aeruginosa ATCC 27853
[3] = test system: Escherichia coli ATCC 25922
[4] = test system: Acinetobacter baumannii ATCC 19606

SMILES | Sa: MIC Staphylococcus aureus ATCC 13709 [1] | Pa: MIC Pseudomonas aeruginosa ATCC 27853 [2] | Ec: MIC Escherichia coli ATCC 25922 [3] | Ab: MIC Acinetobacter baumannii ATCC 19606 [4]
C[C@H](NC(=O)[C@@H](NC(=O)[C@@H](N)CCCCN)[C@@H](O)CN)C(=O)NCC(=O)N[C@H](CCCN)C(=O)N1CCC[C@H]1C(=O)N[C@@H](Cc1ccc(F)c(F)c1)C(=O)N[C@@H](CCCCN)C(=O)N/C(=C\CCNC(=N)N)C(=O)O [24.84] (H-K[Dab(3S-OH)]AG[dOrn]P[Phe(3,4-F2)]K[ΔZArg]-OH) | ++ (≤8 μg/mL) | − (>32 μg/mL) | ++ (≤8 μg/mL) | − (>32 μg/mL)
C[C@H](NC(=O)[C@@H](NC(=O)[C@@H](N)CCCCN)[C@@H](O)CN)C(=O)NCC(=O)N[C@H](CCCN)C(=O)N1CCC[C@H]1C(=O)N[C@@H](Cc1cc(F)cc(F)c1)C(=O)N[C@@H](CCCCN)C(=O)N/C(=C\CCNC(=N)N)C(=O)O [24.86] (H-K[Dab(3S-OH)]AG[dOrn]P[Phe(3,5-F2)]K[ΔZArg]-OH) | ++ (≤8 μg/mL) | − (>32 μg/mL) | + (≤32 μg/mL) | − (>32 μg/mL)
C[C@H](NC(=O)[C@@H](NC(=O)[C@@H](N)CCCCN)[C@@H](O)CN)C(=O)NCC(=O)N[C@H](CCCN)C(=O)N1CCC[C@H]1C(=O)N[C@@H](Cc1cccc(C(F)(F)F)c1)C(=O)N[C@@H](CCCCN)C(=O)N/C(=C\CCNC(=N)N)C(=O)O [24.87] (H-K[Dab(3S-OH)]AG[dOrn]P[Phe(3-CF3)]K[ΔZArg]-OH) | ++ (≤8 μg/mL) | − (>32 μg/mL) | + (≤32 μg/mL) | − (>32 μg/mL)
C[C@H](NC(=O)[C@@H](NC(=O)[C@@H](N)CCCCN)[C@@H](O)CN)C(=O)NCC(=O)N[C@H](CCCN)C(=O)N1CCC[C@H]1C(=O)N[C@@H](Cc1cccc(C#N)c1)C(=O)N[C@@H](CCCCN)C(=O)N/C(=C\CCNC(=N)N)C(=O)O [24.89] (H-K[Dab(3S-OH)]AG[dOrn]P[Phe(3-CN)]K[ΔZArg]-OH) | ++ (≤8 μg/mL) | − (>32 μg/mL) | + (≤32 μg/mL) | − (>32 μg/mL)
C[C@H](NC(=O)[C@@H](NC(=O)[C@@H](N)CCCCN)[C@@H](O)CN)C(=O)NCC(=O)N[C@H](CCCN)C(=O)N1CCC[C@H]1C(=O)N[C@@H](Cc1cncn1C)C(=O)N[C@@H](CCCCN)C(=O)N/C(=C\CCNC(=N)N)C(=O)O [24.91] (H-K[Dab(3S-OH)]AG[dOrn]P[His(π-Me)]K[ΔZArg]-OH) | + (≤32 μg/mL) | − (>32 μg/mL) | + (≤32 μg/mL) | − (>32 μg/mL)
COc1cccc(C[C@H](NC(=O)[C@@H]2CCCN2C(=O)[C@@H](CCCN)NC(=O)CNC(=O)[C@H](C)NC(=O)[C@@H](NC(=O)[C@@H](N)CCCCN)[C@@H](O)CN)C(=O)N[C@@H](CCCCN)C(=O)N/C(=C\CCNC(=N)N)C(=O)O)c1 [24.92] (H-K[Dab(3S-OH)]AG[dOrn]P[Phe(3-OMe)]K[ΔZArg]-OH) | ++ (≤8 μg/mL) | − (>32 μg/mL) | + (≤32 μg/mL) | − (>32 μg/mL)
C[C@H](NC(=O)[C@@H](NC(=O)[C@@H](N)CCCCN)[C@@H](O)CN)C(=O)NCC(=O)N[C@H](CCCN)C(=O)N1CCC[C@H]1C(=O)N[C@@H](Cc1ccc(C(F)(F)F)cc1)C(=O)N[C@@H](CCCCN)C(=O)N/C(=C\CCNC(=N)N)C(=O)O [24.94] (H-K[Dab(3S-OH)]AG[dOrn]P[Phe(4-CF3)]K[ΔZArg]-OH) | ++ (≤8 μg/mL) | − (>32 μg/mL) | ++ (≤8 μg/mL) | − (>32 μg/mL)
CN[C@@H](CCCCN)C(=O)N[C@H](C(=O)N[C@@H](C)C(=O)NCC(=O)N[C@H](CCCN)C(=O)N1CCC[C@H]1C(=O)N[C@@H](Cc1ccc(Cl)cc1)C(=O)N[C@@H](CCCCN)C(=O)N/C(=C\CCNC(=N)N)C(=O)O)[C@@H](O)CN [24.98] (H-[NMeK][Dab(3S-OH)]AG[dOrn]P[Phe(4-Cl)]K[ΔZArg]-OH) | ++ (≤8 μg/mL) | − (>32 μg/mL) | + (≤32 μg/mL) | − (>32 μg/mL)
C[C@H](NC(=O)[C@@H](NC(=O)[C@@H](N)CCCCN)[C@@H](O)CN)C(=O)NCC(=O)N[C@H](CCCN)C(=O)N1CCC[C@H]1C(=O)N[C@@H](Cc1ccc(C(N)=O)cc1)C(=O)N[C@@H](CCCCN)C(=O)N/C(=C\CCNC(=N)N)C(=O)O [24.101] (H-K[Dab(3S-OH)]AG[dOrn]P[Phe(4-CONH2)]K[ΔZArg]-OH) | ++ (≤8 μg/mL) | − (>32 μg/mL) | + (≤32 μg/mL) | − (>32 μg/mL)

Other lines, results leading:

Sa: MIC Staphylococcus aureus ATCC 13709 [1] | Pa: MIC Pseudomonas aeruginosa ATCC 27853 [2] | Ec: MIC Escherichia coli ATCC 25922 [3] | Ab: MIC Acinetobacter baumannii ATCC 19606 [4] | SMILES
++ (≤8 μg/mL) | − (>32 μg/mL) | + (≤32 μg/mL) | − (>32 μg/mL) | C[C@H](NC(=O)[C@@H](NC(=O)[C@@H](N)CCCCN)[C@@H](O)CN)C(=O)NCC(=O)N[C@H](CCCN)C(=O)N1CCC[C@H]1C(=O)N[C@@H](Cc1ccc(F)cc1)C(=O)N[C@@H](CCCCN)C(=O)N/C(=C\CCNC(=N)N)C(=O)O [24.102] (H-K[Dab(3S-OH)]AG[dOrn]P[Phe(4-F)]K[ΔZArg]-OH)
++ (≤8 μg/mL) | − (>32 μg/mL) | + (≤32 μg/mL) | − (>32 μg/mL) | Cc1ccc(C[C@H](NC(=O)[C@@H]2CCCN2C(=O)[C@@H](CCCN)NC(=O)CNC(=O)[C@H](C)NC(=O)[C@@H](NC(=O)[C@@H](N)CCCCN)[C@@H](O)CN)C(=O)N[C@@H](CCCCN)C(=O)N/C(=C\CCNC(=N)N)C(=O)O)cc1 [24.104] (H-K[Dab(3S-OH)]AG[dOrn]P[Phe(4-Me)]K[ΔZArg]-OH)
+ (≤32 μg/mL) | − (>32 μg/mL) | + (≤32 μg/mL) | − (>32 μg/mL) | C[C@H](NC(=O)[C@@H](NC(=O)[C@@H](N)CCCCN)[C@@H](O)CN)C(=O)NCC(=O)N[C@H](CCCN)C(=O)N1CCC[C@H]1C(=O)N[C@@H](Cc1ccc(N)cc1)C(=O)N[C@@H](CCCCN)C(=O)N/C(=C\CCNC(=N)N)C(=O)O [24.105] (H-K[Dab(3S-OH)]AG[dOrn]P[Phe(4-NH2)]K[ΔZArg]-OH)
+ (≤32 μg/mL) | − (>32 μg/mL) | + (≤32 μg/mL) | − (>32 μg/mL) | C[C@H](NC(=O)[C@@H](NC(=O)[C@@H](N)CCCCN)[C@@H](O)CN)C(=O)NCC(=O)N[C@H](CCCN)C(=O)N1CCC[C@H]1C(=O)N[C@@H](Cc1ccccn1)C(=O)N[C@@H](CCCCN)C(=O)N/C(=C\CCNC(=N)N)C(=O)O [24.106] (H-K[Dab(3S-OH)]AG[dOrn]P[2Pal]K[ΔZArg]-OH)
+ (≤32 μg/mL) | − (>32 μg/mL) | + (≤32 μg/mL) | − (>32 μg/mL) | C[C@H](NC(=O)[C@@H](NC(=O)[C@@H](N)CCCCN)[C@@H](O)CN)C(=O)NCC(=O)N[C@H](CCCN)C(=O)N1CCC[C@H]1C(=O)N[C@@H](Cc1cccnc1)C(=O)N[C@@H](CCCCN)C(=O)N/C(=C\CCNC(=N)N)C(=O)O [24.107] (H-K[Dab(3S-OH)]AG[dOrn]P[3Pal]K[ΔZArg]-OH)
+ (≤32 μg/mL) | − (>32 μg/mL) | − (>32 μg/mL) | − (>32 μg/mL) | C[C@H](NC(=O)[C@@H](NC(=O)[C@@H](N)CCCCN)[C@@H](O)CN)C(=O)NCC(=O)N[C@H](CCCN)C(=O)N1CCC[C@H]1C(=O)N[C@@H](Cc1ccncc1)C(=O)N[C@@H](CCCCN)C(=O)N/C(=C\CCNC(=N)N)C(=O)O [24.108] (H-K[Dab(3S-OH)]AG[dOrn]P[4Pal]K[ΔZArg]-OH)
+ (≤32 μg/mL) | − (>32 μg/mL) | − (>32 μg/mL) | − (>32 μg/mL) | C[C@H](NC(=O)[C@@H](NC(=O)[C@@H](N)CCCCN)[C@@H](O)CN)C(=O)NCC(=O)N[C@H](CCCN)C(=O)N1CCC[C@H]1C(=O)N[C@H](C(=O)N[C@@H](CCCCN)C(=O)N/C(=C\CCNC(=N)N)C(=O)O)[C@H](C)O [24.110] (H-K[Dab(3S-OH)]AG[dOrn]P[aThr]K[ΔZArg]-OH)
++ (≤8 μg/mL) | − (>32 μg/mL) | + (≤32 μg/mL) | − (>32 μg/mL) | C=CC[C@H](NC(=O)[C@@H]1CCCN1C(=O)[C@@H](CCCN)NC(=O)CNC(=O)[C@H](C)NC(=O)[C@@H](NC(=O)[C@@H](N)CCCCN)[C@@H](O)CN)C(=O)N[C@@H](CCCCN)C(=O)N/C(=C\CCNC(=N)N)C(=O)O [24.111] (H-K[Dab(3S-OH)]AG[dOrn]P[AllylGly]K[ΔZArg]-OH)
+ (≤32 μg/mL) | − (>32 μg/mL) | − (>32 μg/mL) | − (>32 μg/mL) | C[C@H](NC(=O)[C@@H](NC(=O)[C@@H](N)CCCCN)[C@@H](O)CN)C(=O)NCC(=O)N[C@H](CCCN)C(=O)N1CCC[C@H]1C(=O)N[C@@H](CCCNC(N)=O)C(=O)N[C@@H](CCCCN)C(=O)N/C(=C\CCNC(=N)N)C(=O)O [24.116] (H-K[Dab(3S-OH)]AG[dOrn]P[Cit]K[ΔZArg]-OH)
